The target in one experiment is T1, BRG1 (Homo sapiens, UniProt P51532).
T1 construct: either BRM primary antibody (Cell signaling Cat #11966) or BRG primary antibody (Abcam, ab 110641); endogenous in cells; host or cells: SW1573
Nature of the experiment: Immunofluorescence assay for BRG1 degradation in SW1573 cells. The following applies: 20 hours incubation; for DC50: immunofluorescence mean nuclear signal, read-out: BRG1 IF Degradation IC50; for Dmax: SW1573, 20 h, read-out: BRG1 IF Degradation Sinf (%); for Dmax / BRG1 IF Degradation Sinf (%): normalized to a known degrader control. The experiment is classed as cell-based. In short, it runs like this:
(§1)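 SW1573 cells treated with compound for 20 h, then fixed, permeabilized and immunostained for BRM or BRG1 with Hoechst nuclear counterstain. Mean nuclear intensity per cell quantified by high-content imaging; data normalized to a reference degrader control, with floating-maximum curve fits giving IC50 and Dmax.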

A further experiment concerns the target BRM (Homo sapiens, UniProt P51531). Nature of the experiment: Immunofluorescence assay for BRM degradation in SW1573 cells. The experiment is classed as cell-based. Set-up: treated overnight at 4° C. with either BRM primary antibody (Cell signaling Cat #11966) or BRG primary antibody; endogenous in cells; host or cells: SW1573. The following applies: 20 hours incubation; for DC50: immunofluorescence mean nuclear signal, read-out: BRM IF Degradation IC50; for BRM IF Degradation Sinf (%): normalized to a known degrader control. In short, it runs like this: as §1

A value given as a limit tells only on which side of the number the result lay.

T1 sequence (P51532 whole entry): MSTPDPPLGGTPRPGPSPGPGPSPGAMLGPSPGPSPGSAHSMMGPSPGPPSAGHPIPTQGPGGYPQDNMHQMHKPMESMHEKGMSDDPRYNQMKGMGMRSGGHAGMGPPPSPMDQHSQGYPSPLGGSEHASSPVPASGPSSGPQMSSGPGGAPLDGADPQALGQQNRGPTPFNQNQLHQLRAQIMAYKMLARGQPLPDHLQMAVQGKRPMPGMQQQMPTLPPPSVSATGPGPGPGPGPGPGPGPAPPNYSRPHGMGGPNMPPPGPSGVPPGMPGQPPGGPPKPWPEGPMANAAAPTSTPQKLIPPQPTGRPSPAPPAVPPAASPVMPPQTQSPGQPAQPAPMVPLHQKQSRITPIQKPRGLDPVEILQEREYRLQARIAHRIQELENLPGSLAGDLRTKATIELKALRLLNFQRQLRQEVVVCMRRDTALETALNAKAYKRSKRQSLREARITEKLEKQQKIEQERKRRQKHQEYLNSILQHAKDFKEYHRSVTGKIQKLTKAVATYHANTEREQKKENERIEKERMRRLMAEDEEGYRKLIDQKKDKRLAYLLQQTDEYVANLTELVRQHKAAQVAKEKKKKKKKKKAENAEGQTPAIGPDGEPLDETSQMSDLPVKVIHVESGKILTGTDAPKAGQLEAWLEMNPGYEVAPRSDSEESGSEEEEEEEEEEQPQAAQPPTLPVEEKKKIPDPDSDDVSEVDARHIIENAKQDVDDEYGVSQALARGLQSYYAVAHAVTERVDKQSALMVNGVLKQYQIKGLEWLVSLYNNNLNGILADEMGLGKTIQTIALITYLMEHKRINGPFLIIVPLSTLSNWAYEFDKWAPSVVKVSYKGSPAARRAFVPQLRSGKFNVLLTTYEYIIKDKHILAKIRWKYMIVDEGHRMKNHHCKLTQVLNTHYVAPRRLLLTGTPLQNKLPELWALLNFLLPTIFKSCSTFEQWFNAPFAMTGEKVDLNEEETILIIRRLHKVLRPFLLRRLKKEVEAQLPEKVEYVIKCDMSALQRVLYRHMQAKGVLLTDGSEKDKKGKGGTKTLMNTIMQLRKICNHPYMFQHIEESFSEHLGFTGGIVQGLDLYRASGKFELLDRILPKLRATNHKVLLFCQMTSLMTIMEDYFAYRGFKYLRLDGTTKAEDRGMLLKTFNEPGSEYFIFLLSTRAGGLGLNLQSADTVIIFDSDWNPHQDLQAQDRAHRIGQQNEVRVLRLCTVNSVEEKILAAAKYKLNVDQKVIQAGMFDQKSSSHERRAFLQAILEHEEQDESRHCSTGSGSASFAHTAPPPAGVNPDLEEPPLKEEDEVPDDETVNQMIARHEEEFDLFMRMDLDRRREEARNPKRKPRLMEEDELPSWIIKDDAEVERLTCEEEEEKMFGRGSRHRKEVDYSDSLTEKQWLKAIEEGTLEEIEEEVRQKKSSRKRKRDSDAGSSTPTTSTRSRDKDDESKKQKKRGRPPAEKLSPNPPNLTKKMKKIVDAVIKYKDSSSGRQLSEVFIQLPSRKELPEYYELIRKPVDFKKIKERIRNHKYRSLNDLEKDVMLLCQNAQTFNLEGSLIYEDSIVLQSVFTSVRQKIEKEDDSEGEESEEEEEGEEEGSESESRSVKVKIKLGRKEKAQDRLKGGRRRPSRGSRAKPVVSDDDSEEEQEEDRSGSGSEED
BRM, sequence (P51531 whole entry): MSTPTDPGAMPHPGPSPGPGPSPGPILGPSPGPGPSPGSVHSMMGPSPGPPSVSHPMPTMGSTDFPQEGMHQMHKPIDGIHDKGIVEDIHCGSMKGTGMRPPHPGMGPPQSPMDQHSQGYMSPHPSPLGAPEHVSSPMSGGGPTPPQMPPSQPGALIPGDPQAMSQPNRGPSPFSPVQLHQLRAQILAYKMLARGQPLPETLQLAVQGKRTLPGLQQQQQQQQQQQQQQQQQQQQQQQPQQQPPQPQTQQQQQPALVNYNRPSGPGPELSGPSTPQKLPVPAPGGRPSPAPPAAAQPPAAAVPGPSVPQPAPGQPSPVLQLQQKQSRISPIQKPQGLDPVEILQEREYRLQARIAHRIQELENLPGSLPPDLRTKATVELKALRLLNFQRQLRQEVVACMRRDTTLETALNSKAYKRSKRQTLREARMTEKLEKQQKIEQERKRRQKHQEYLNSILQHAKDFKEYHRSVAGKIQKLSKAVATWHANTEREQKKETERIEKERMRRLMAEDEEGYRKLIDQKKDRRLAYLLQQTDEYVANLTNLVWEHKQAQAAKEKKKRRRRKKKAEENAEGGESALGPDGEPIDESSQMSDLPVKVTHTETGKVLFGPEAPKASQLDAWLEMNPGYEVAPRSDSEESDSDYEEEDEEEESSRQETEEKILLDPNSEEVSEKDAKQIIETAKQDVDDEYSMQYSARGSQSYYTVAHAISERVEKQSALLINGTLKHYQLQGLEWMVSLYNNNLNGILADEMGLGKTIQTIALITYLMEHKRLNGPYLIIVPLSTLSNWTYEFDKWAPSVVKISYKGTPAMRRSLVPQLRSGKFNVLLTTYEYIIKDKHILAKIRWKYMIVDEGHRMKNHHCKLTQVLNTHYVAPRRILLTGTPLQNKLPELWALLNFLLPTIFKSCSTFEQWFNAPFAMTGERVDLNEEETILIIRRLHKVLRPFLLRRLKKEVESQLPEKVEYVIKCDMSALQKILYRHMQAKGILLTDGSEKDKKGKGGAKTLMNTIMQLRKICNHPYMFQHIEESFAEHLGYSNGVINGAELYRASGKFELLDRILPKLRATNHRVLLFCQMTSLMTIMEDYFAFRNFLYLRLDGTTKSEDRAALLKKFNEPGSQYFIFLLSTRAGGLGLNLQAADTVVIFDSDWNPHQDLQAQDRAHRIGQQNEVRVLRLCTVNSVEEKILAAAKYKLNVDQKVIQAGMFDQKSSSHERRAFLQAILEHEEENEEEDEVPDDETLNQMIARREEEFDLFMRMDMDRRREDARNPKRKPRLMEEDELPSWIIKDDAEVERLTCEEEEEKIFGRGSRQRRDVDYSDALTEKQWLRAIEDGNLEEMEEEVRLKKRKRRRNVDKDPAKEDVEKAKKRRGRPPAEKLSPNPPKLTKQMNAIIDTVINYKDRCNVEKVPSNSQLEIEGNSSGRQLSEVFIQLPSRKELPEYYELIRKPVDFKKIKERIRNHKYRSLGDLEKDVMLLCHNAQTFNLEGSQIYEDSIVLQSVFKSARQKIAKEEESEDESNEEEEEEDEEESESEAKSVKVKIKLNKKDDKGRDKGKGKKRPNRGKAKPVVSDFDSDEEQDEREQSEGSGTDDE

Turning to `CN1C[C@@H]2C[C@H]1CN2CC#Cc1cc(N2C3CCC2CN(c2cc(-c4ccccc4O)nnc2N)C3)ccn1` [Compound 164, 2-[6-amino-5-[8-[2-[3-[(1S,4S)-5-methyl-2,5-diazabicyclo[2.2.1]heptan-2-yl]prop-1-ynyl]-4-pyridyl]-3,8-diazabicyclo[3.2.1]octan-3-yl]pyridazin-3-yl]phenol], on BRG1, the DC50 was more than 0.1 µM and the Dmax is 0 to 30%. In addition, on BRM, the DC50 was in the range of 0.01 to 0.1 µM and the “BRM IF Degradation Sinf (%)” value is “E (E indicates −30%-−70%)”.

Take `Nc1nnc(-c2ccccc2O)cc1N1CC2CCC(C1)N2c1ccnc(C#CCN2CCC[C@]23CCNC3)c1` [Compound 165, 2-[6-amino-5-[8-[2-[3-[(5R)-1,7-diazaspiro[4.4]nonan-1-yl]prop-1-ynyl]-4-pyridyl]-3,8-diazabicyclo[3.2.1]octan-3-yl]pyridazin-3-yl]phenol]: the DC50 at BRG1 and at BRM was more than 0.1 µM throughout. Further, the “BRM IF Degradation Sinf (%)” value at BRM is recorded as “E (E indicates −30%-−70%)”.

Regarding `Nc1nnc(-c2ccccc2O)cc1N1CC2CCC(C1)N2c1ccnc(C#CCN2CCCCC2)c1` [Compound 166, 2-(6-amino-5-(8-(2-(3-(piperidin-1-yl)prop-1-yn-1-yl)pyridin-4-yl)-3,8-diazabicyclo[3.2.1]octan-3-yl)pyridazin-3-yl)phenol], the DC50 on BRG1 is more than 0.1 µM. Further, on BRM, the DC50 was less than 0.01 µM and the “BRM IF Degradation Sinf (%)” value is “E (E indicates −30%-−70%)”.

Regarding `Nc1nnc(-c2ccccc2O)cc1N1CC2CCC(C1)N2c1ccnc(C#CCN2CCC23CCOC3)c1` (centres unmarked) [Compound 167, 2-[6-amino-5-[8-[2-[3-(7-oxa-1-azaspiro[3.4]octan-1-yl)prop-1-ynyl]-4-pyridyl]-3,8-diazabicyclo[3.2.1]octan-3-yl]pyridazin-3-yl]phenol], at BRG1, the DC50 is less than 0.01 µM and the “BRG1 IF Degradation Sinf (%)” value is listed as “F (F indicates −71%-−120%)”. For the same compound, at BRM, the DC50 was less than 0.01 µM and the “BRM IF Degradation Sinf (%)” value is on record as “F (F indicates −71%-−120%)”.

As for `Nc1nnc(-c2ccccc2O)cc1N1CC2CCC(C1)N2c1ccnc(C#CCN2CC(O)C2)c1` [Compound 168, 1-[3-[4-[3-[3-amino-6-(2-hydroxyphenyl)pyridazin-4-yl]-3,8-diazabicyclo[3.2.1]octan-8-yl]-2-pyridyl]prop-2-ynyl]azetidin-3-ol], on BRG1, the DC50 is 0.01 to 0.1 µM and the “BRG1 IF Degradation Sinf (%)” value is on record as “E (E indicates −30%-−70%)”. On BRM, the DC50 fell in the range of 0.01 to 0.1 µM and the “BRM IF Degradation Sinf (%)” value is reported as “F (F indicates −71%-−120%)”.

As for `COC1(C)CN(CC#Cc2cc(N3C4CCC3CN(c3cc(-c5ccccc5O)nnc3N)C4)ccn2)C1` [Compound 169, 2-[6-amino-5-[8-[2-[3-(3-methoxy-3-methyl-azetidin-1-yl)prop-1-ynyl]-4-pyridyl]-3,8-diazabicyclo[3.2.1]octan-3-yl]pyridazin-3-yl]phenol], at BRG1, the DC50 lay in the range of 0.01 to 0.1 µM and the Dmax lay in the range of 30 to 70%. Also, at BRM, the DC50 was less than 0.01 µM and the “BRM IF Degradation Sinf (%)” value is “E (E indicates −30%-−70%)”.

Turning to `CC1(CO)CN(CC#Cc2cc(N3C4CCC3CN(c3cc(-c5ccccc5O)nnc3N)C4)ccn2)C1` [Compound 170, 2-[6-amino-5-[8-[2-[3-[3-(hydroxymethyl)-3-methyl-azetidin-1-yl]prop-1-ynyl]-4-pyridyl]-3,8-diazabicyclo[3.2.1]octan-3-yl]pyridazin-3-yl]phenol], on BRG1, the DC50 is more than 0.1 µM and the Dmax was 30 to 70%. At BRM, the DC50 lay in the range of 0.01 to 0.1 µM and the “BRM IF Degradation Sinf (%)” value is listed as “E (E indicates −30%-−70%)”.

Consider `Nc1nnc(-c2ccccc2O)cc1N1CC2CCC(C1)N2c1ccnc(C#CCN2CC(F)(CO)C2)c1` [Compound 171, 2-[6-amino-5-[8-[2-[3-[3-fluoro-3-(hydroxymethyl)azetidin-1-yl]prop-1-ynyl]-4-pyridyl]-3,8-diazabicyclo[3.2.1]octan-3-yl]pyridazin-3-yl]phenol], for which the DC50 on BRG1 is more than 0.1 µM. Further, at BRM, the DC50 was more than 0.1 µM and the “BRM IF Degradation Sinf (%)” value is “E (E indicates −30%-−70%)”.

With `CC1CN(CC#Cc2cc(N3C4CCC3CN(c3cc(-c5ccccc5O)nnc3N)C4)ccn2)C1` [Compound 172, 2-[6-amino-5-[8-[2-[3-(3-methylazetidin-1-yl)prop-1-ynyl]-4-pyridyl]-3,8-diazabicyclo[3.2.1]octan-3-yl]pyridazin-3-yl]phenol], at BRG1, the DC50 fell in the range of 0.01 to 0.1 µM and the Dmax fell in the range of 71 to 120%. Also, on BRM, the DC50 was less than 0.01 µM and the “BRM IF Degradation Sinf (%)” value is on record as “E (E indicates −30%-−70%)”.

As to `CC1(F)CN(CC#Cc2cc(N3C4CCC3CN(c3cc(-c5ccccc5O)nnc3N)C4)ccn2)C1` [Compound 173, 2-[6-amino-5-[8-[2-[3-(3-fluoro-3-methyl-azetidin-1-yl)prop-1-ynyl]-4-pyridyl]-3,8-diazabicyclo[3.2.1]octan-3-yl]pyridazin-3-yl]phenol], on BRG1, the DC50 is 0.01 to 0.1 µM and the Dmax lay in the range of 30 to 70%. Besides, on BRM, the DC50 was 0.01 to 0.1 µM and the “BRM IF Degradation Sinf (%)” value is reported as “F (F indicates −71%-−120%)”.

For `COC1CN(CC#Cc2cc(N3C4CCC3CN(c3cc(-c5ccccc5O)nnc3N)C4)ccn2)C1` [Compound 174, 2-[6-amino-5-[8-[2-[3-(3-methoxyazetidin-1-yl)prop-1-ynyl]-4-pyridyl]-3,8-diazabicyclo[3.2.1]octan-3-yl]pyridazin-3-yl]phenol], at BRG1, the DC50 fell in the range of 0.01 to 0.1 µM and the Dmax was in the range of 30 to 70%. For the same compound, at BRM, the DC50 lay in the range of 0.01 to 0.1 µM and the “BRM IF Degradation Sinf (%)” value is given as “F (F indicates −71%-−120%)”.

For `Nc1nnc(-c2ccccc2O)cc1N1CC2CCC(C1)N2c1ccnc(C#CCN2CC3(CCCOC3)C2)c1` [Compound 175, 2-[6-amino-5-[8-[2-[3-(6-oxa-2-azaspiro[3.5]nonan-2-yl)prop-1-ynyl]-4-pyridyl]-3,8-diazabicyclo[3.2.1]octan-3-yl]pyridazin-3-yl]phenol], on BRG1, the DC50 is less than 0.01 µM and the Dmax was 30 to 70%. Moreover, at BRM, the DC50 is less than 0.01 µM and the “BRM IF Degradation Sinf (%)” value was “E (E indicates −30%-−70%)”.

With `COC(=O)C1CCN1CC#Cc1cc(N2C3CCC2CN(c2cc(-c4ccccc4O)nnc2N)C3)ccn1` (centres unmarked) [Compound 176, methyl 1-[3-[4-[3-[3-amino-6-(2-hydroxyphenyl)pyridazin-4-yl]-3,8-diazabicyclo[3.2.1]octan-8-yl]-2-pyridyl]prop-2-ynyl]azetidine-2-carboxylate], the DC50 on BRG1 is more than 0.1 µM. For the same compound, at BRM, the DC50 lay within 0.01 to 0.1 µM and the “BRM IF Degradation Sinf (%)” value was “E (E indicates −30%-−70%)”.

For `Nc1nnc(-c2ccccc2O)cc1N1CC2CCC(C1)N2c1ccnc(C#CCN2CC3(C2)C(CF)CCS3(=O)=O)c1` (centres unmarked) [Compound 177, 2-[6-amino-5-[8-[2-[3-[8-(fluoromethyl)-5,5-dioxo-5lambda6-thia-2-azaspiro[3.4]octan-2-yl]prop-1-ynyl]-4-pyridyl]-3,8-diazabicyclo[3.2.1]octan-3-yl]pyridazin-3-yl]phenol], at BRG1, the DC50 is 0.01 to 0.1 µM and the Dmax lay within 30 to 70%. At BRM, the DC50 lay in the range of 0.01 to 0.1 µM and the “BRM IF Degradation Sinf (%)” value was “E (E indicates −30%-−70%)”.

As for `Nc1nnc(-c2ccccc2O)cc1N1CC2CCC(C1)N2c1ccnc(C#CCN2CC3(CCCO3)C2)c1` [Compound 178, 2-[6-amino-5-[8-[2-[3-(5-oxa-2-azaspiro[3.4]octan-2-yl)prop-1-ynyl]-4-pyridyl]-3,8-diazabicyclo[3.2.1]octan-3-yl]pyridazin-3-yl]phenol], on BRG1, the DC50 was less than 0.01 µM and the Dmax lay in the range of 30 to 70%. Also, on BRM, the DC50 fell in the range of 0.01 to 0.1 µM and the “BRM IF Degradation Sinf (%)” value was “F (F indicates −71%-−120%)”.

As to `Nc1nnc(-c2ccccc2O)cc1N1CC2CCC(C1)N2c1ccnc(C#CCN2CC(CO)(c3ccccc3)C2)c1` [Compound 179, 2-[6-amino-5-[8-[2-[3-[3-(hydroxymethyl)-3-phenyl-azetidin-1-yl]prop-1-ynyl]-4-pyridyl]-3,8-diazabicyclo[3.2.1]octan-3-yl]pyridazin-3-yl]phenol], at BRG1, the DC50 was 0.01 to 0.1 µM and the Dmax was 30 to 70%. On BRM, the DC50 lay within 0.01 to 0.1 µM and the “BRM IF Degradation Sinf (%)” value is “F (F indicates −71%-−120%)”.

`CC1CN(CC#Cc2cc(N3C4CCC3CN(c3cc(-c5ccccc5O)nnc3N)C4)ccn2)C1C` (centres unmarked) [Compound 180, 2-[6-amino-5-[8-[2-[3-(2,3-dimethylazetidin-1-yl)prop-1-ynyl]-4-pyridyl]-3,8-diazabicyclo[3.2.1]octan-3-yl]pyridazin-3-yl]phenol]: at BRG1, the DC50 was less than 0.01 µM and the Dmax was 30 to 70%. At BRM, the DC50 is less than 0.01 µM and the “BRM IF Degradation Sinf (%)” value was “E (E indicates −30%-−70%)”.

Take `Nc1nnc(-c2ccccc2O)cc1N1CC2CCC(C1)N2c1ccnc(C#CCN2CCCCC(F)(F)C2)c1` [Compound 181, 2-[6-amino-5-[8-[2-[3-(3,3-difluoroazepan-1-yl)prop-1-ynyl]-4-pyridyl]-3,8-diazabicyclo[3.2.1]octan-3-yl]pyridazin-3-yl]phenol]: on BRG1, the DC50 fell in the range of 0.01 to 0.1 µM and the Dmax is 30 to 70%. On BRM, the DC50 is 0.01 to 0.1 µM and the “BRM IF Degradation Sinf (%)” value is “F (F indicates −71%-−120%)”.
